Assay results published in US10633348B2, “Methods to treat lymphoplasmacytic lymphoma” (Dana-Farber Cancer Institute, Inc., priority 2013, dated 2020).

Tests used:
Assay type in all cases: cell-based
ACK = test system: ACK
AMPKa1, AMPKa2 = test: KiNativ kinase profiling in A375 cells; conditions: Lys2, SEQ ID NO 4, 1.0 μM
ARAF = test system: ARAF
AurB = test system: AurB
BRAF = test system: BRAF
CAMK4 = test system: CAMK4
CDK9 = test system: CDK9
CK1g2 = test system: CK1g2
DGKA = test system: DGKA
DGKQ = test system: DGKQ
FES = test system: FES
IKKb = test system: IKKb
IKKe = test system: IKKe
IRAK4 = test system: IRAK4
JAK1 = test system: JAK1
KSR1, KSR2 = test: KiNativ kinase profiling in A375 cells; conditions: Activation Loop, SEQ ID NO 70, 1.0 μM
LCK = test system: LCK
LOK = test system: LOK
MAP2K3 = test system: MAP2K3
MAP3K3 = test system: MAP3K3
MAP3K4 = test system: MAP3K4
MAP3K6 = test system: MAP3K6
MARK2, MARK3 = test: KiNativ kinase profiling in A375 cells; conditions: Lys2, SEQ ID NO 92, 1.0 μM
MAST1, MAST2 = test: KiNativ kinase profiling in A375 cells; conditions: Lys2, SEQ ID NO 96, 1.0 μM
MAST3 = test system: MAST3
MELK = test system: MELK
MPSK1 = test system: MPSK1
MSK1 domain1 = test system: MSK1 domain1
MST1 = test system: MST1
MST2 = test system: MST2
NEK2 = test system: NEK2
NEK8 = test system: NEK8
OSR1 = test system: OSR1
PHKG2 = test system: PHKG2
PIK3CB = test system: PIK3CB
PIK3CG = test system: PIK3CG
PITSLRE = test: KiNativ kinase profiling in A375 cells; conditions: Lys2, SEQ ID NO 152, 1.0 μM
PKCa, PKCb = test: KiNativ kinase profiling in A375 cells; conditions: Lys2, SEQ ID NO 153, 1.0 μM
PLK1 = test system: PLK1
[1] = test system: RSK1 domain1, RSK2 domain1, RSK3 domain1; test: KiNativ kinase profiling in A375 cells; conditions: Lys2, SEQ ID NO 165, 1.0 μM
RSK2 domain2 = test system: RSK2 domain2
RSK4 domain1 = test system: RSK4 domain1
SGK3 = test system: SGK3
SMG1 = test system: SMG1
TAO2 = test system: TAO2
TEC = test system: TEC
ULK3 = test system: ULK3
VRK2 = test system: VRK2
Wnk1, Wnk2, Wnk3 = test: KiNativ kinase profiling in A375 cells; conditions: Lys2, SEQ ID NO 194, 1.0 μM
Hck-pY410 = test: PhosFlow; conditions: BCWM.1, Hck-wt and Hck-mu BCWM.1 cells; 0.5 μM and 0.1 μM

`CCN1CCN(Cc2ccc(NC(=O)c3ccc(C)c(Oc4cc(N)ncn4)c3)cc2C(F)(F)F)CC1` [(A-4), 3-((6-aminopyrimidin-4-yl)oxy)-N-(4-((4-ethylpiperazin-1-yl)methyl)-3-(trifluoromethyl)phenyl)-4-methylbenzamide] was tested, and the “inhibition of kinase labeling” value (ACK) was 4.9%, the “inhibition of kinase labeling” value (AMPKa1, AMPKa2) was 16.3% and the “inhibition of kinase labeling” value (ARAF) was 12.2%. For the same molecule, the “inhibition of kinase labeling” value (AurB) was −51.1%, the “inhibition of kinase labeling” value (BRAF) was 18.9% and the “inhibition of kinase labeling” value (CAMK4) was 5.9%. The “inhibition of kinase labeling” value (CDK9) was −16.2%, the “inhibition of kinase labeling” value (CK1g2) was −9.1% and the “inhibition of kinase labeling” value (DGKA) was −4.8%. For the same molecule, the “inhibition of kinase labeling” value (DGKQ) was 11.0%, the “inhibition of kinase labeling” value (FES) was 89.1% and the “inhibition of kinase labeling” value (IKKb) was −12.6%. For the same molecule, the “inhibition of kinase labeling” value (IKKe) was −9.9%, the “inhibition of kinase labeling” value (IRAK4) was 1.9% and the “inhibition of kinase labeling” value (JAK1) was 4.3%. The “inhibition of kinase labeling” value (KSR1, KSR2) was −10.0%, the “inhibition of kinase labeling” value (LCK) was 92.3% and the “inhibition of kinase labeling” value (LOK) was 19.9%. The “inhibition of kinase labeling” value (MAP2K3) was −1.0%, the “inhibition of kinase labeling” value (MAP3K3) was 3.7% and the “inhibition of kinase labeling” value (MAP3K4) was 19.2%. For the same molecule, the “inhibition of kinase labeling” value (MAP3K6) was −25.0%, the “inhibition of kinase labeling” value (MARK2, MARK3) was 4.6% and the “inhibition of kinase labeling” value (MAST1, MAST2) was 35.6%. For the same molecule, the “inhibition of kinase labeling” value (MAST3) was −8.1%, the “inhibition of kinase labeling” value (MELK) was −19.6% and the “inhibition of kinase labeling” value (MPSK1) was 16.1%. The “inhibition of kinase labeling” value (MSK1 domain1) was 5.7%, the “inhibition of kinase labeling” value (MST1) was −4.7% and the “inhibition of kinase labeling” value (MST2) was −6.2%. The “inhibition of kinase labeling” value (NEK2) was −22.7%, the “inhibition of kinase labeling” value (NEK8) was −11.4% and the “inhibition of kinase labeling” value (OSR1) was −11.1%. The “inhibition of kinase labeling” value (PHKG2) was 15.2%, the “inhibition of kinase labeling” value (PIK3CB) was 27.8% and the “inhibition of kinase labeling” value (PIK3CG) was −21.1%. The “inhibition of kinase labeling” value (PITSLRE) was −10.4%, the “inhibition of kinase labeling” value (PKCa, PKCb) was 2.3% and the “inhibition of kinase labeling” value (PLK1) was −9.1%. The “inhibition of kinase labeling” value [1] was −17.7%, the “inhibition of kinase labeling” value (RSK2 domain2) was −24.1% and the “inhibition of kinase labeling” value (RSK4 domain1) was 27.6%. The “inhibition of kinase labeling” value (SGK3) was −10.2%, the “inhibition of kinase labeling” value (SMG1) was −4.0% and the “inhibition of kinase labeling” value (TAO2) was 86.0%. For the same molecule, the “inhibition of kinase labeling” value (TEC) was −12.8%, the “inhibition of kinase labeling” value (ULK3) was −4.4% and the “inhibition of kinase labeling” value (VRK2) was 27.9%. The “inhibition of kinase labeling” value (Wnk1, Wnk2, Wnk3) was 0.2%.

`CCN1CCN(Cc2ccc(NC(=O)c3ccc(C)c(Oc4ccnc(Nc5cnn(C)c5)n4)c3)cc2C(F)(F)F)CC1` [(A-14), N-(4-((4-ethylpiperazin-1-yl)methyl)-3-(trifluoromethyl)phenyl)-4-methyl-3-((2-((1-methyl-1H-pyrazol-4-yl)amino)pyrimidin-4-yl)oxy)benzamide] was tested, and the “Hck phosphorylation” value (Hck-pY410) was “inhibit”.
